In US7709507B2 (Allergan, Inc., priority 2006, dated 2010):
Like-named read-outs stand apart in the source and are kept apart here.

Legend:
Format in all cases: cell-based
[1] = molecular target: T1, alpha2A receptor (Homo sapiens, UniProt P08913); assay: Receptor Selection and Amplification Technology (RSAT) assay, Alpha 2A; conditions: for Alpha 2A EC50: RSAT, transfected NIH-3T3 cells with Gq/i5, not active = at concentrations less than 10 micromolar
T1 construct: expressed in transfected cells; host or cells: NIH-3T3 cells
T1 sequence (P08913 1-465): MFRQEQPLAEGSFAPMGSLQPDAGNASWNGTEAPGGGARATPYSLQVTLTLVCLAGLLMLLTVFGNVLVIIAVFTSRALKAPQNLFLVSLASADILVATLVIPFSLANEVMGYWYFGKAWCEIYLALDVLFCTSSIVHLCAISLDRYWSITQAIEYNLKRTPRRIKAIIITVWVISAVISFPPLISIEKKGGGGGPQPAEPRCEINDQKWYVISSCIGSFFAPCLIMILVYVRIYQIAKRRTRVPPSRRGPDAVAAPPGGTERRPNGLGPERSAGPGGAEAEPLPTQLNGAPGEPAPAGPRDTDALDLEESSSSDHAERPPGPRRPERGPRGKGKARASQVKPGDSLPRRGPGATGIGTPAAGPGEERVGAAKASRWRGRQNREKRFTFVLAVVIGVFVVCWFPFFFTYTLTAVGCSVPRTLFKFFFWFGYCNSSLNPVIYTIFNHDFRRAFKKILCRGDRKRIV
Protocol: (§1) Receptor Selection and Amplification Technology (RSAT) Assay
(§2) The RSAT assay measures a receptor-mediated loss of contact inhibition that results in selective proliferation of receptor-containing cells in a mixed population of confluent cells. The increase in cell number is assessed with an appropriate transfected marker gene such as β-galactosidase, the activity of which can be easily measured in a 96-well format. Receptors that activate the G protein, Gq, elicit this response. Alpha2 receptors, which normally couple to Gi, activate the RSAT response when coexpressed with a hybrid Gq protein that has a Gi receptor recognition domain, called Gq/i5.
(§3) NIH-3T3 cells are plated at a density of 2×10^6 cells in 15 cm dishes and maintained in Dulbecco's modified Eagle's medium supplemented with 10% calf serum. One day later, cells are cotransfected by calcium phosphate precipitation with mammalian expression plasmids encoding p-SV-β-galactosidase (5-10 μg), receptor (1-2 μg) and G protein (1-2 μg). 40 μg salmon sperm DNA may also be included in the transfection mixture. […] Cells are thawed and 100 μl added to 100 μl aliquots of various concentrations of drugs in triplicate in 96-well dishes. Incubations continue 72-96 hr at 37° C. After washing with phosphate-buffered saline, β-galactosidase enzyme activity is determined by adding 200 μl of the chromogenic substrate (consisting of 3.5 mM o-nitrophenyl-β-D-galactopyranoside and 0.5% nonidet P-40 in phosphate buffered saline), incubating overnight at 30° C. and measuring optical density at 420 nm. The absorbance is a measure of enzyme activity, which depends on cell number and reflects a receptor-mediated cell proliferation. The efficacy or intrinsic activity is calculated as a ratio of the maximal effect of the drug to the maximal effect of a standard full agonist for each receptor subtype. Brimonidine, also called UK14304, the chemical structure of which is shown below, is used as the standard agonist for the alpha2A, alpha2B and alpha2C receptors. The EC50 is the concentration at which the drug effect is half of its maximal effect.
(§4) EC50 values are nanomolar. NA stands for “not active” at concentrations less than 10 micromolar. IA stands for “intrinsic activity.”

[2] = molecular target: T2, alpha2C receptor (Homo sapiens, UniProt P18825); assay: Receptor Selection and Amplification Technology (RSAT) assay, Alpha 2C; conditions: for Alpha 2C IA (intrinsic activity): ratio of maximal effect to that of standard full agonist brimonidine (UK14304)
T2 construct: expressed in transfected cells; host or cells: NIH-3T3 cells
T2 sequence (P18825 1-462): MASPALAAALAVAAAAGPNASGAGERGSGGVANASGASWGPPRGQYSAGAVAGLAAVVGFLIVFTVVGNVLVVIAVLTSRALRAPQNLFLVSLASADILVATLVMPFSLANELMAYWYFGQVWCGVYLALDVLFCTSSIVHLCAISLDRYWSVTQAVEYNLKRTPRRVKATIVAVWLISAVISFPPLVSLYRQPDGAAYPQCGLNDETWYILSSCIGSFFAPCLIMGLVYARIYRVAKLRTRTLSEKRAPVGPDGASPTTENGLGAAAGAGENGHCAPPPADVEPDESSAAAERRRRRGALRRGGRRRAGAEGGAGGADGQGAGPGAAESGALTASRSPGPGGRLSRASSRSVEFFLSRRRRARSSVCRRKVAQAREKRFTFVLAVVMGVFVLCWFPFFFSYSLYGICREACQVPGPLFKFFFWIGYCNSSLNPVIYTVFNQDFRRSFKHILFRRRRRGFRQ
Protocol: as §1, §2, §3, §4

[3] = molecular target: T3, alpha2B receptor (Homo sapiens, UniProt P18089); assay: Receptor Selection and Amplification Technology (RSAT) assay, Alpha 2B; conditions: for EC50: transfected NIH-3T3 cells with Gq/i5, not active = at concentrations less than 10 micromolar; for Alpha 2B IA (intrinsic activity): ratio of maximal effect to that of standard full agonist brimonidine (UK14304)
T3 construct: expressed in transfected cells; host or cells: NIH-3T3 cells
T3 sequence (P18089 1-450): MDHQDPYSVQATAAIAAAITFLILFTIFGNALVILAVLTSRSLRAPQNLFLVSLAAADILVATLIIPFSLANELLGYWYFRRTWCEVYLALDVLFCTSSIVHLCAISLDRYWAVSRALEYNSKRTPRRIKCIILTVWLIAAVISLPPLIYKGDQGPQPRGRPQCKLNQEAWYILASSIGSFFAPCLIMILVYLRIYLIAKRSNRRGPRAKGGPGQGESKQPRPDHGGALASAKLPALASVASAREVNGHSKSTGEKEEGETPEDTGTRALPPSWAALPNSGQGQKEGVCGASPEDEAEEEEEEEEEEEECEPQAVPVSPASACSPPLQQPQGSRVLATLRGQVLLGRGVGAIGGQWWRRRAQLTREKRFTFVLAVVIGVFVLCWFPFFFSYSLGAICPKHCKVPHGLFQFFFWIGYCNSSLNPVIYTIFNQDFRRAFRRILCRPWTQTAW
Protocol: as §1, §2
NIH-3T3 cells are plated at a density of 2×10^6 cells in 15 cm dishes and maintained in Dulbecco's modified Eagle's medium supplemented with 10% calf serum. One day later, cells are cotransfected by calcium phosphate precipitation with mammalian expression plasmids encoding p-SV-β-galactosidase (5-10 μg), receptor (1-2 μg) and G protein (1-2 μg). 40 μg salmon sperm DNA may also be included in the transfection mixture. Fresh media is added on the following day and 1-2 days later, cells are harvested and frozen in 50 assay aliquots. Cells are thawed and 100 μl added to 100 μl aliquots of various concentrations of drugs in triplicate in 96-well dishes. Incubations continue 72-96 hr at 37° C. After washing with phosphate-buffered saline, β-galactosidase enzyme activity is determined by adding 200 μl of the chromogenic substrate (consisting of 3.5 mM o-nitrophenyl-β-D-galactopyranoside and 0.5% nonidet P-40 in phosphate buffered saline), incubating overnight at 30° C. and measuring optical density at 420 nm. The absorbance is a measure of enzyme activity, which depends on cell number and reflects a receptor-mediated cell proliferation. The efficacy or intrinsic activity is calculated as a ratio of the maximal effect of the drug to the maximal effect of a standard full agonist for each receptor subtype. Brimonidine, also called UK14304, the chemical structure of which is shown below, is used as the standard agonist for the alpha2A, alpha2B and alpha2C receptors. The EC50 is the concentration at which the drug effect is half of its maximal effect.
The results of the RSAT assay with several exemplary compounds of the invention are disclosed in Table 1 above together with the chemical formulas of these exemplary compounds. EC50 values are nanomolar. NA stands for “not active” at concentrations less than 10 micromolar. IA stands for “intrinsic activity.”

[4] = RSAT, transfected NIH-3T3 cells with Gq/i5, not active = at concentrations less than 10 micromolar
[5] = RSAT, transfected NIH-3T3 cells with Gq/i5, not active = at concentrations less than 10 micromolar, read-out: Alpha 2C EC50

SMILES | Alpha 2A EC50 [1] | Alpha 2C EC50 [2, 4] | EC50 ([3]; RSAT, read-out: Alpha 2B EC50) | Alpha 2B IA (intrinsic activity) [3] | EC50 [2, 5] | Alpha 2C IA (intrinsic activity) [2] | EC50 [1] | Alpha 2A IA (intrinsic activity) ([1]; ratio of maximal effect to that of standard full agonist brimonidine (UK14304)) | EC50 [2] | EC50 ([3]; Alpha 2B EC50, RSAT)
Cc1cccc(C(Cc2cccs2)NC(=O)NCCF)c1 (stereo not drawn) [1-(2-fluoro-ethyl)-3-(2-thiophen-2-yl-1-m-tolyl-ethyl)-urea] | not active | not active | 37 nM | 1.08 | – | – | – | – | – | –
O=C(NCCF)NC(Cc1ccccc1F)c1cccnc1 (stereo not drawn) [1-(2-fluoro-ethyl)-3-[2-(2-fluoro-phenyl)-1-pyridin-3-yl-ethyl]-urea] | not active | not active | 747 nM | 0.78 | – | – | – | – | – | –
O=C(NCCF)NC(Cc1ccccc1F)c1ccncc1 (stereo not drawn) [1-(2-fluoro-ethyl)-3-[2-(2-fluoro-phenyl)-1-pyridin-4-yl-ethyl]-urea] | not active | not active | 2120 nM | 0.53 | – | – | – | – | – | –
O=C(NCCF)NC(Cc1cccc(F)c1)c1cccc(C(F)(F)F)c1 (stereo not drawn) [1-(2-fluoro-ethyl)-3-[2-(3-fluoro-phenyl)-1-(3-trifluoromethyl-phenyl)-ethyl]-urea] | not active | not active | 84.2 nM | 0.84 | – | – | – | – | – | –
O=C(NCCF)NC(Cc1cccc(F)c1)c1cccnc1 (stereo not drawn) [1-(2-fluoro-ethyl)-3-[2-(3-fluoro-phenyl)-1-pyridin-3-yl-ethyl]-urea] | not active | not active | 1990 nM | 0.41 | – | – | – | – | – | –
O=C(NCCF)NC(Cc1ccc(F)cc1)c1cccnc1 (stereo not drawn) [1-(2-fluoro-ethyl)-3-[2-(4-fluoro-phenyl)-1-pyridin-3-yl-ethyl]-urea] | not active | not active | 2780 nM | 0.49 | – | – | – | – | – | –
O=C(NCCF)NC(Cc1ccccc1)c1cccc2ccccc12 (stereo not drawn) [1-(2-fluoroethyl)-3-[1-(1-naphthyl)-2-phenylethyl]urea] | not active | not active | 160 nM | 0.77 | – | – | – | – | – | –
COc1ccccc1C(Cc1ccccc1)NC(=O)NCCF (stereo not drawn) [1-(2-fluoroethyl)-3-[1-(2-methoxyphenyl)-2-phenylethyl]urea] | not active | – | 51.2 nM | 0.88 | 78.9 nM | 0.42 | – | – | – | –
COc1ccc(C(Cc2ccccc2)NC(=O)NCCF)cc1 (stereo not drawn) [1-(2-fluoroethyl)-3-[1-(4-methoxyphenyl)-2-phenylethyl]urea] | not active | not active | 1060 nM | 0.3 | – | – | – | – | – | –
Cc1ccc(C(Cc2ccccc2)NC(=O)NCCF)cc1 (stereo not drawn) [1-(2-fluoroethyl)-3-[1-(4-methylphenyl)-2-phenylethyl]urea] | not active | not active | 218 nM | 0.53 | – | – | – | – | – | –
O=C(NCCF)NC(Cc1ccccc1F)c1ccccc1 (stereo not drawn) [1-(2-fluoroethyl)-3-[2-(2-fluorophenyl)-1-phenylethyl]urea] | not active | not active | 12.9 nM | 0.96 | – | – | – | – | – | –
O=C(NCCF)NC(Cc1ccc(F)cc1)c1ccccc1 (stereo not drawn) [1-(2-fluoroethyl)-3-[2-(4-fluorophenyl)-1-phenylethyl]urea] | not active | not active | 51.3 nM | 0.93 | – | – | – | – | – | –
O=C(NCCF)NC(Cc1ccccc1)c1cccs1 (stereo not drawn) [1-(2-fluoroethyl)-3-[2-phenyl-1-(2-thienyl)ethyl]urea] | – | – | – | 0.99 | – | 0.35 | 346 nM | 0.35 | 119 nM | 28.5 nM
O=C(NCCF)NC(Cc1ccccc1)c1ccccc1Cl (stereo not drawn) [1-[1-(2-chlorophenyl)-2-phenylethyl]-3-(2-fluoroethyl)urea] | not active | – | 407 nM | 0.64 | 700 nM | 0.34 | – | – | – | –
